According to the NIST ThermoML archive (doi:10.1021/je2010209):

Test: xn = mol fraction of the nth substance listed
Settings: 101 kPa, Liquid; for speed of sound: Sing-around technique in a fixed-path interferometer; for mass density: Vibrating tube method

COCCOCCOCCO [2-[2-(2-methoxyethoxy)ethoxy]ethanol] + CCCCn1cc[n+](C)c1.F[B-](F)(F)F
Settings	mass density [kg/m3]	speed of sound [m/s]
288.15 K, x2 = 0	1050.1	1470
288.15 K, x2 = 0.024	1056.87	1484
288.15 K, x2 = 0.107	1076.66	1510
288.15 K, x2 = 0.2241	1099.67	1541
288.15 K, x2 = 0.3275	1118.29	1555
288.15 K, x2 = 0.4285	1135.35	1564
288.15 K, x2 = 0.5067	1147.58	1570
288.15 K, x2 = 0.6282	1164.47	1575
288.15 K, x2 = 0.7072	1174.32	1581
288.15 K, x2 = 0.8256	1188.11	1584
288.15 K, x2 = 0.913	1197.84	1585
293.15 K, x2 = 0	1045.75	1452
293.15 K, x2 = 0.024	1052.52	1466
293.15 K, x2 = 0.107	1072.57	1492
293.15 K, x2 = 0.2241	1095.95	1519
293.15 K, x2 = 0.3275	1114.5	1539
293.15 K, x2 = 0.4285	1131.41	1550
293.15 K, x2 = 0.5067	1143.6	1555
293.15 K, x2 = 0.6282	1160.74	1561
293.15 K, x2 = 0.7072	1170.79	1568
293.15 K, x2 = 0.8256	1184.68	1572
293.15 K, x2 = 0.913	1194.26	1573
298.15 K, x2 = 0	1041.32	1436
298.15 K, x2 = 0.024	1048.15	1450
298.15 K, x2 = 0.107	1068.36	1475
298.15 K, x2 = 0.2241	1091.87	1503
298.15 K, x2 = 0.3275	1110.48	1524
298.15 K, x2 = 0.4285	1127.42	1533
298.15 K, x2 = 0.5067	1139.64	1541
298.15 K, x2 = 0.6282	1156.88	1548
298.15 K, x2 = 0.7072	1167	1555
298.15 K, x2 = 0.8256	1181.03	1560
298.15 K, x2 = 0.913	1190.69	1560
303.15 K, x2 = 0	1036.84	1421
303.15 K, x2 = 0.024	1043.76	1435
303.15 K, x2 = 0.107	1064.17	1458
303.15 K, x2 = 0.2241	1087.79	1488
303.15 K, x2 = 0.3275	1106.46	1509
303.15 K, x2 = 0.4285	1123.48	1519
303.15 K, x2 = 0.5067	1135.77	1528
303.15 K, x2 = 0.6282	1153.12	1534
303.15 K, x2 = 0.7072	1163.33	1543
303.15 K, x2 = 0.8256	1177.39	1548
303.15 K, x2 = 0.913	1187	1549
308.15 K, x2 = 0	1032.27	1408
308.15 K, x2 = 0.024	1039.37	1421
308.15 K, x2 = 0.107	1060.13	1444
308.15 K, x2 = 0.2241	1083.76	1475
308.15 K, x2 = 0.3275	1102.44	1494
308.15 K, x2 = 0.4285	1119.54	1507
308.15 K, x2 = 0.5067	1131.91	1516
308.15 K, x2 = 0.6282	1149.37	1523
308.15 K, x2 = 0.7072	1159.63	1530
308.15 K, x2 = 0.8256	1173.68	1536
308.15 K, x2 = 0.913	1183.36	1538
313.15 K, x2 = 0	1027.76	1393
313.15 K, x2 = 0.024	1034.9	1406
313.15 K, x2 = 0.107	1055.73	1431
313.15 K, x2 = 0.2241	1079.59	1461
313.15 K, x2 = 0.3275	1098.41	1483
313.15 K, x2 = 0.4285	1115.62	1493
313.15 K, x2 = 0.5067	1128.04	1503
313.15 K, x2 = 0.6282	1145.63	1511
313.15 K, x2 = 0.7072	1155.93	1518
313.15 K, x2 = 0.8256	1170.13	1524
313.15 K, x2 = 0.913	1179.9	1527
318.15 K, x2 = 0	1023.3	1376
318.15 K, x2 = 0.024	1030.54	1390
318.15 K, x2 = 0.107	1051.51	1415
318.15 K, x2 = 0.2241	1075.43	1447
318.15 K, x2 = 0.3275	1094.37	1468
318.15 K, x2 = 0.4285	1111.73	1480
318.15 K, x2 = 0.5067	1124.25	1490
318.15 K, x2 = 0.6282	1141.8	1500
318.15 K, x2 = 0.7072	1152	1506
318.15 K, x2 = 0.8256	1166.14	1513
318.15 K, x2 = 0.913	1176	1516
